# Activity calls are given as the source filed them. The calls are words filed in the database; no cut-off is given here.
# System: iNKT
# Assay: Stimulation of human iNKT cell proliferation
# Assay type: functional, cell-based
row,SMILES,Activity
1,CCCCCCCCCCCCCCCCCCCCCCCCCC(=O)N[C@@H](/C=N/O[C@@H]1O[C@H](CO)[C@H](O)[C@H](O)[C@H]1O)[C@H](O)[C@H](O)CCCCCCCCCCCCCC,Active
2,CCCCCCCCCCCCCCCCCCCCCCCCCC(=O)N[C@@H](/C=N/O[C@H]1O[C@H](CO)[C@H](O)[C@H](O)[C@H]1O)[C@H](O)[C@H](O)CCCCCCCCCCCCCC,Active

# From ChEMBL document CHEMBL1177796, “Efficient synthesis of galactosylceramide analogues for iNKT cell stimulation” (Bioorg Med Chem Lett, 2010)
